Test results from patent US10550120B2, “Indole alkaloid compound having immune checkpoint inhibitory action” (TOHOKU UNIVERSITY, priority 2016, dated 2020).

Experiments:
IL-10 = experiment: Measurement of human IL-10 amount in culture supernatant of MT2 cells with ELISA kit (Test 1); assay type: cell-based; settings: 48±2 hours; for activity at 10 µM / activity at 20 µM / activity at 12.5 µM / activity at 25 µM: Homo sapiens, 48 h, DMSO control = 100%, read-out: % against control (IL-10 production)
Description: (§1) MT2 cells from human adult T-cell leukemia were used. Leukemia cells of human adult T-cell leukemia (ATL) express CD4 and CD25 molecules on the cell surface and are considered to be derived from Treg (Chen S. et al., International Immunology 18:269-277 (2005)). MT2 cells were used in experiments as models of Treg since the cells are CD4 positive, CD25 positive, and FOXP3 positive celles derived from ATL.
(§2) The example compounds (compounds 1-17) of the present invention were dissolved in dimethylsulfoxide (DMSO) to prepare each 50 mmol/L solution, which was preserved at −80° C.
The amount of IL-10 production in the control and the example compounds was measured to evaluate the inhibitory effect on IL-10 production of the example compounds of the present invention.
(1) MT2 cells are suspended in RPMI1640 medium (hereinafter referred to as “the medium”) supplemented with 10% fetal calf serum (FCS) and 1% penicillin/streptomycin (P/S) to give 3×10^5 cells/mL suspension, and 1 mL of the suspension was added to each well of a 24-well plate. […] The cell cultures were incubated 48±2 hours in a CO2 incubator (under a condition of 37° C., 5 CO2). DMSO was diluted 50-fold with the medium, and 20 μL of the diluent was added to the well to make a control of compounds 1-7. In addition, DMSO was diluted 50-fold with the medium, and 25.0 μL of the diluent was added to the well to make a control of compounds 8-17.
(2) A piece of the cell culture was sampled to count cells with a cell counter (BIO RAD TC-20). The cell culture was centrifuged at 300×g for 5 minutes and the supernatant was collected as a sample for IL-10 measurement. When not measured within a day, it was preserved in a freezer at −80° C.
(3) Human IL-10 ELISA kit II (BD OptEIA) was used on the measurement. The kit contains wells treated with anti-IL-10 antibody (8 wells/strip), Standard/Sample diluent, vials comprising freeze-dried IL-10 Standard (1280 pg/vial), ELISA diluent, 20× Wash Buffer, Detection antibody, Enzyme Concentrate, TMB One Step Substrate Reagent, Stop Solution, and cover sheets.
(4) To a vial containing IL-10 Standard was added […] Standard/Sample diluent, and the vial was stood at room temperature for 15 minutes to be dissolved (Standard sample stock solution 1L-10 concentration: 500 pg/mL).
(5) Standard samples in each concentration for making a standard curve were prepared as follows. Firstly, to 300 μL of the medium was added 300 μL of the standard sample stock solution, and the mixture was mixed with a Voltex mixer (250 pg/mL). Next, 300 μL of the standard sample of 250 pg/mL was added to 300 μL of the medium and the mixture was mixed with a Voltex mixer (125 pg/mL). The same procedures were successively repeated to prepare standard solutions of 62.5, 31.25, 15.625, and 7.8125 pg/mL. As 0 pg/mL standard solution, the medium was used.
(6) A kit containing wells treated with anti-IL-10 antibody (8 wells/strip) was warmed to room temperature and 50 μL of ELISA diluent in the kit was added into each well.
(7) To each well containing ELISA diluent, 100 μL of the standard samples of each concentration and each test sample (diluded 50-100 fold with medium) were added.
(8) After the wells were sealed with a cover sheet and gently tapped, they were left at room temperature for 2 hours.
(9) 20× Wash Buffer was diluted 20-fold with water to prepare 1× Wash Buffer.
(10) After the reaction was done for 2 hours, the solutions in each well were aspirated and washed 5 times with 300 μL of 1× Wash Buffer.
(11) After Enzyme Concentrate (4 μL per 8 wells) was added to Detection antibody (1 ml per 8 wells), the solution was mixed by a Vortex mixer and then a necessary amount of Working Detector was prepared.
(12) 100 μL of Working Detector was added to each well, covered with a cover sheet, and the wells were left at room temperature for an hour.
(13) After the reaction was done for an hour, the solutions in wells were aspirated and washed 7 times with 300 μL of 1× Wash Buffer. […]

CTLA-4 = experiment: Intracellular staining of MT2 cells with fluorescence-labeled anti-CTLA-4 antibody and measurement by flow cytometry; assay type: cell-based, human; settings: 48±2 hours; for Peak MFI of CTLA-4: isotype IgG2a subtracted, average of n=3
Description: as §1, §2
(1) MT2 cells were suspended in RPMI1640 medium (hereinafter referred to as “the medium”) supplemented with 10% fetal calf serum (FCS) and 1° penicillin/streptomycin (P/S) to give 3×10^5 cells/mL suspension and 3 mL of the suspension was added to each well of a 6-well plate. To each well were added 0.6 or 1.2 μL of the test compound solutions (compounds 1, 2, and 4), 0.75 or 1.5 μL of the test compound solution (compound 9), and 1.5 μL of the test compound solutions (compounds 8 and 10-17), and the cell cultures were incubated in a CO2 gas incubator (under 37° C., 5% CO2) and cultured for 48±2 hours. As a control of compound 1, 2 and 4, only 1.2 μL of DMSO was added to the well. In addition, as a control of compound 8-17, only 1.5 μL of DMSO was added to the well.
(2) A piece of the cell culture was sampled to count cells with a cell counter (BIO RAD TC-20). The cell culture was centrifuged at 300×g for 5 min, and the supernatant was removed. The residue was suspended in phosphate buffered saline (supplemented with 1% bovine serum albumin (BSA), without calcium and magnesium) (1% BSA/PBS) to adjust the concentration of cells to 5-10×10^6 cells/mL.
(3) To 5 ml tube, each 50 μL of the cell suspension was added.
(4) Foxp3/Transcription Factor Fix/Perm Concentrate (4×) (Cat. No. TNB-1020-L050) (Solution A) in FOXP3/Transcription Factor Staining kit (TONBO biosciences) was diluted with Foxp3/Transcription Factor Fix/Perm Diluent (1×) (Cat. No. TNB-1022-L160) (for dilution of Solution A) to prepare 1× Solution A.
(5) 1 mL of 1× Solution A was added to each tube and mixed by gentle pipetting. Subsequently, it was left at room temperature for 30 min, centrifuged at 300×g for […], and the supernatant was discarded.
(6) Flow Cytometry Perm Buffer (10×) (Cat. No. TNB-1213-L150) (Solution B) in the kit was diluted 10-fold with water to prepare 1× Solution B.
(7) 2 mL of 1× Solution B was added to the tube and centrifuged at 300×g for 5 min. The supernatant was discarded. 2 μL of 2% normal mouse serum/PBS was added to the tube and the tube was gently pipetted. Subsequently, it was left at room temperature for 15 min.
(8) In the CTLA-4 measurement, 20 μL of anti-CTLA-4 antibody (BECKMAN COULTER, CD152-PE clone BN13I M2282) or mouse IgG2a (BECKMAN COULTER, IgG2a (Mouse)-PE A09142) for the control was added to the tube and the tube was gently stirred. Subsequently, it was left in the dark at room temperature for 30 min, and 2 mL of the 1× Solution B was added thereto, the mixture was centrifuged at 300×g for 5 min, and the supernatant was discarded. 2 mL of the 1× Solution B was added to the tube again, the mixture was centrifuged at 300×g for 5 min, and the supernatant was discarded.
(9) Within 2 hours after the solution in the tube was suspended in 0.5 mL of 1% BSA/PBS, and the fluorescence at 577 nm was measured with 488 nm excitation with a flow cytometer (Sony: Cell Sorter SH800). The results were analyzed with software, FlowJo (Tree Star Inc.). The mean peak fluorescence intensity (MFI) of CTLA-4 and mean peak fluorescence intensity of isotype control IgG2a were calculated from histgrams of the measured fluorescence intensity and number of cells, and mean fluorescence intensity of IgG2a was subtracted from that of CTLA-4. Experiments were conducted in n=3, and the average values were shown.

[1] = Homo sapiens, 48 h, 25.0 μmol/L, DMSO control = 100%, read-out: % against control (CTLA-4 expression)

Row | SMILES | IL-10 (ng/10^6 cells) ± standard deviate (n = 3) (IL-10; 10 μmol/L) [ng/10^6 cells] | IL-10 (ng/10^6 cells) ± standard deviate (n = 3) (IL-10; 20 μmol/L) [ng/10^6 cells] | activity at 10 µM (IL-10; 10 μmol/L) [%] | activity at 20 µM (IL-10; 20 μmol/L) [%] | IL-10 (ng/10^6 cells) ± standard deviate (n = 3) (IL-10; 12.5 μmol/L) [ng/10^6 cells] | IL-10 (ng/10^6 cells) ± standard deviate (n = 3) (IL-10; 25.0 μmol/L) [ng/10^6 cells] | activity at 12.5 µM (IL-10; 12.5 μmol/L) [%] | activity at 25 µM (IL-10; 25.0 μmol/L) [%] | Peak MFI of CTLA-4 (CTLA-4; 25.0 μmol/L) | activity at 25 µM (CTLA-4; [1]) [%] | other results
1 | COC(=O)C1=CN(CCc2c[nH]c3ccccc23)C=C2[C@@H]1CC(OC)O[C@H]2C (some centres unmarked) [Compound 3] | 14.8 ± 0.3 | 11.8 ± 0.3 | 80 | 63.7 |  |  |  |  |  |  | 
2 | COC(=O)C1=CN2CCc3c([nH]c4ccccc34)[C@H]2[C@@H]2C(CO)=CC[C@H]12 [Compound 4] | 8.0 ± 0.2 | 4.3 ± 0.5 | 42.9 | 23 |  |  |  |  |  |  | Peak MFI of CTLA-4 (CTLA-4; 10 μmol/L): 796.0; Peak MFI of CTLA-4 (CTLA-4; 20 μmol/L): 621.0; activity at 10 µM (CTLA-4; Homo sapiens, 48 h, 10 μmol/L, DMSO control = 100%, read-out: % against control (CTLA-4 expression)): 93.4%; activity at 20 µM (CTLA-4; Homo sapiens, 48 h, 20 μmol/L, DMSO control = 100%, read-out: % against control (CTLA-4 expression)): 72.9%
3 | COC(=O)C1=CN2CCc3c([nH]c4ccccc34)[C@@H]2[C@@]2(O)C(CO)=CC[C@H]12 [Compound 5] | 19.7 ± 0.2 | 14.9 ± 0.4 | 106 | 80.5 |  |  |  |  |  |  | 
4 | COC(=O)C1=CN(CCc2c[nH]c3ccccc23)C(O)[C@H]2[C@@H]1C=CC2(O)CO (some centres unmarked) [Compound 6] | 17.6 ± 0.7 | 15.2 ± 0.4 | 95.2 | 81.8 |  |  |  |  |  |  | 
5 | CC1C(C=O)=C2CCOC(=O)C2=CN1CCc1c[nH]c2ccccc12 (centres unmarked) [Compound 7] | 17.9 ± 0.6 | 15.4 ± 0.4 | 96.5 | 83.1 |  |  |  |  |  |  | 
6 | COC(=O)C1=CN2CCc3c([nH]c4cc(OC)ccc34)[C@@H]2[C@@H]2[C@@H](C)[C@@H](O)C[C@H]12 [Compound 8] |  |  |  |  | 15.5 ± 1.2 | 7.9 ± 0.4 | 94.6 | 48.4 | 361 | 50 | 
7 | COC(=O)C1=CN2CCc3c([nH]c4cc(Cl)ccc34)[C@@H]2[C@@H]2[C@@H](C)[C@@H](O)C[C@H]12 [Compound 9] |  |  |  |  | 11.1 ± 1.3 | 6.1 ± 1.3 | 67.7 | 37.5 | 539 | 52.8 | Peak MFI of CTLA-4 (CTLA-4; 12.5 μmol/L): 778; activity at 12.5 µM (CTLA-4; Homo sapiens, 48 h, 12.5 μmol/L, DMSO control = 100%, read-out: % against control (CTLA-4 expression)): 76.3%
8 | COC(=O)C1=CN2CCc3c([nH]c4ccc(OC)cc34)[C@@H]2[C@@H]2[C@@H](C)[C@@H](O)C[C@H]12 [Compound 10] |  |  |  |  | 8.8 ± 0.4 | 5.6 ± 0.3 | 93.5 | 59.6 | 570 | 56.3 | 
9 | COC(=O)C1=CN2CCc3c([nH]c4c(C)cccc34)[C@@H]2[C@@H]2[C@@H](C)[C@@H](O)C[C@H]12 [Compound 11] |  |  |  |  | 7.4 ± 0.2 | 5.6 ± 0.3 | 78.2 | 55.4 | 602 | 59.5 | 
